Test results reported in PMC12005767 (Advanced Science, 2025).

Key:
[1] = system: acetylation of histone H3, histone H4, and α-tubulin; assay: Acetylation of histone H3, histone H4 and α-tubulin in HEK293T cells (immunoblot); format: cell-based; conditions: HEK293T cells, 0.25, 0.5 and 1 × 10^−6 M, 24 h
Procedure: (§1) Western blot was carried out as described.^[ [49] ^] In brief, samples were lysed with a lysis buffer. The same quantity of total proteins (40–60 µg) from each sample was separated on SDS‐PAGE followed by transfer onto a nitrocellulose filter membrane and incubation with the indicated antibodies. After incubation with secondary antibodies, the protein bands were visualized using a chemiluminescence imaging system. All samples in the same group were processed simultaneously.

HDAC5 = molecular target: T1, HDAC5 (Homo sapiens, UniProt Q9UQL6); assay: In vitro HDACs inhibition fluorescence assay, HDAC5; format: biochemical; conditions: mean ± SEM
T1 construct: purchased BPS Bioscience
Procedure: (§2) In Vitro HDACs Inhibition Fluorescence Assay: For the inhibitory activity against HDAC1‐10, enzymes were also procured from BPS Bioscience. The in vitro […] inhibition assays were conducted following the established method described previously.^[ [45] ^] The working concentrations of HDAC1‐10 were 4 × 10^−9 M. The fluorogenic substrate of HDAC1, 2, 3, and 6 was Boc‐Lys (acetyl)‐AMC, and the substrate of HDAC4, 5, 7, 8, 9, and 10 was Boc‐Lys (trifluoroacetyl) AMC. The developer solution consists of 30 mg mL^−1 trypsin and 5 × 10^−6 M TSA. A standing period of 30 min was sufficient before assessing the fluorescence intensity.

[2] = Hydrophilicity / dissolution in 5% DMSO aqueous solution (HPLC); format: physicochemical; conditions: Figure S2
Procedure: Figure S2. (A) Liquid chromatograms of compounds A8 and B6 in methanol and 5% DMSO aqueous solution, respectively. The chromatograms were determined with an Agilent 1260 HPLC, using an Agilent 5 TC-C18 column (5 μm, 250mm× 4.6 mm). The eluent system was made up of solvent A (water) and solvent B (methanol). Elution conditions: phase B was 85% The peaks were detected at 254 nm at a flow rate was 1.0 mL/min. (B) The peak areas of serially diluted compound B6 were determined under the above-mentioned liquid chromatographic conditions, and a linear regression equation was fitted. (C) The dissolution status/solubility condition of compounds A8 and B6 in a 5% DMSO aqueous solution.

HDAC10 = molecular target: T2, HDAC10 (Homo sapiens, UniProt Q969S8); assay: In vitro HDACs inhibition fluorescence assay, HDAC10; format: biochemical; conditions: mean ± SEM
T2 construct: purchased BPS Bioscience
Procedure: as §2

[3] = system: SREBP1c, FASN, SCD1, CPT1A, PGC1α, PPARα expression in AML12 cells; assay: Protein and mRNA expression of DNL and fatty acid oxidation genes in FFA-treated AML12 cells; format: cell-based
Procedure: as §1
(§3) Cells and liver tissues were extracted for total RNA. A reverse transcription kit was used to synthesize cDNA. qRT‐PCR was performed with the primers listed in Table S1 (Supporting Information) using the SYBR green PCR master mix. The coding sequence of the target gene was found in NCBI, and Primer3 (v.0.4.0) was used to design amplification primers. The results were normalized by β‐actin in the corresponding sample.

HDAC2 = molecular target: T3, HDAC2 (Homo sapiens, UniProt Q92769); assay: In vitro HDACs inhibition fluorescence assay, HDAC2; format: biochemical; conditions: mean ± SEM
T3 construct: purchased BPS Bioscience
Procedure: as §2

HDAC11 = molecular target: T4, HDAC11 (Homo sapiens, UniProt Q96DB2); assay: HDAC11 inhibition fluorescence assay (ETDKmyr substrate); format: biochemical
T4 construct: The HDAC11 enzyme was a full‐length human recombinant HDAC enzyme sourced from BPS Bioscience; purchased BPS Bioscience
T4 sequence (Q96DB2 1-347): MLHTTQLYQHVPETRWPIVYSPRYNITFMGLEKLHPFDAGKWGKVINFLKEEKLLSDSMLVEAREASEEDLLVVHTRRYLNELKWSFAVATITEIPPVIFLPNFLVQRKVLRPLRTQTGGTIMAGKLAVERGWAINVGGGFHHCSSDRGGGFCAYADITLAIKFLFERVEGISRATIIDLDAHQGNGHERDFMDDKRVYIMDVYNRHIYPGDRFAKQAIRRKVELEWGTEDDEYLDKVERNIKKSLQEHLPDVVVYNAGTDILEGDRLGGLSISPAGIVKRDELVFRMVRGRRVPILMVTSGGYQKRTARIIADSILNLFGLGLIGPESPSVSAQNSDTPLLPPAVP
Procedure: The HDAC11 enzyme was a full‐length human recombinant HDAC enzyme sourced from BPS Bioscience. In detail, a total of 20 µL of recombinant HDAC11 enzyme solution (working concentration = 1 × 10^−9 M) was combined with varying concentrations of the test compound (20 µL) in a 96‐well black plate. The mixture was then incubated at a temperature of 30 °C for a duration of 1 h. Subsequently, 10 µL of the specific fluorogenic substrate (ETDKacyl‐Kmyr) was added. Following 2 h incubation at 30 °C, the catalytic reaction was ceased by adding 10 µL of a developer solution consisting of 2 mg mL^−1 trypsin and 5 × 10^−6 M trichostatin A (TSA). After a standing period of 6 h, the fluorescence intensity was assessed using a microplate reader at excitation and emission wavelengths of 360 and 460 nm, respectively. The inhibition ratios were calculated based on the fluorescence intensity readings of the test wells compared to the control wells. GraphPad Prism 8.0 software was employed to generate IC 50 curves and determine the corresponding IC 50 values utilizing the “log(inhibitor) versus normalized response‐variable slope” function.

HepG2 cells = assay: FFA-induced lipid accumulation in HepG2 cells (Oil Red O); format: cell-based, human; conditions: 24 h
Procedure: (§4) For the lipid accumulation experiment, HepG2 cells were incubated for 24 h in DMEM containing 0.5 × 10^−3 M of a mixture of free fatty acids (FFA; oleic acid: palmitic acid = 2:1) and 1% FFA‐free bovine serum albumin to induce intracellular lipid accumulation, together with B6 treatment.
Cells were fixed with 4% paraformaldehyde, followed by sequential staining with Oil Red O and hematoxylin.

SIRT2 = SIRT2 (Homo sapiens, UniProt Q8IXJ6); assay: SIRT2 inhibition fluorescence assay (AcIQF substrate); format: biochemical
Procedure: For the inhibitory activity against SIRT2, substrate is the AcIQF.^[ [46] ^] Dilution series compound was incubated with the SIRT2 enzyme ([…]) for 30 min at 25 °C. Then AcIQF (5 × 10^−3 M) and NAD^+ ([…]) were added to start the reaction at 25 °C. 2 h later, […] stop solution (containing ≈2 U mL^−1 trypsin and 4 × 10^−3 M nicotinamide) was added to stop the reactions. Then the mixture was incubated for 30 min, and the fluorescence intensity was assessed.

[4] = system: SREBP1c, FASN, SCD1, CPT1A, PGC1α, PPARα, p-AMPKα (Thr172), LKB1 in HepG2 cells; assay: Protein and mRNA expression and AMPKα phosphorylation in FFA-induced HepG2 cells; format: cell-based, human
Procedure: as §4, §1, §3

HDAC6 = molecular target: T5, HDAC6 (Homo sapiens, UniProt Q9UBN7); assay: In vitro HDACs inhibition fluorescence assay, HDAC6; format: biochemical; conditions: mean ± SEM
T5 construct: purchased BPS Bioscience
Procedure: as §2

[5] = FFA-induced HepG2 cells, 0.5 × 10^−6 M, 24 h
[6] = FFA-treated HepG2 cells, 0.5 × 10^−6 M, 24 h

Chain of SIRT2 (Q8IXJ6 whole entry, species assumed): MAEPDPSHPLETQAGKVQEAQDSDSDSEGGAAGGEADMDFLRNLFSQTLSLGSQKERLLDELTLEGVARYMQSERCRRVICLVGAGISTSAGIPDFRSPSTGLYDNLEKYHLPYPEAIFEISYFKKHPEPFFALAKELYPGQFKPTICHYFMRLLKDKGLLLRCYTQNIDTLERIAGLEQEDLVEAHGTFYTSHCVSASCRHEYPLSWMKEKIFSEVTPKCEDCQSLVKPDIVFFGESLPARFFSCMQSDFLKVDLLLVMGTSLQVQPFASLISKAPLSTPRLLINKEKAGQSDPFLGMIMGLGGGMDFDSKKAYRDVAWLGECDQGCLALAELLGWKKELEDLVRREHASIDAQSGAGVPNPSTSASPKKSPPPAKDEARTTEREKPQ
T3 sequence (Q92769 whole entry): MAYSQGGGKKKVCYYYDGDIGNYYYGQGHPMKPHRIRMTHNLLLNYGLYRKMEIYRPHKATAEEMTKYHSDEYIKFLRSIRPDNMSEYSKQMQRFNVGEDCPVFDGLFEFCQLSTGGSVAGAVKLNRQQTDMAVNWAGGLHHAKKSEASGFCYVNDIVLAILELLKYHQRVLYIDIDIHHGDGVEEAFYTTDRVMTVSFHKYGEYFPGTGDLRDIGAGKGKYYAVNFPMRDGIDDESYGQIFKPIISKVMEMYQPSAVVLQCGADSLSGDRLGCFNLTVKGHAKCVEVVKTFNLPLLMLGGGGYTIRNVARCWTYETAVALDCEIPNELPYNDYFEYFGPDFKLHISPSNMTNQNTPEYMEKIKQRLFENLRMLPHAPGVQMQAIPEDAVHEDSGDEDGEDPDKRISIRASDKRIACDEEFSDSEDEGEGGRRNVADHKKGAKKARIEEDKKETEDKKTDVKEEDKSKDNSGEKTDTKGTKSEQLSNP
T2 sequence (Q969S8 whole entry): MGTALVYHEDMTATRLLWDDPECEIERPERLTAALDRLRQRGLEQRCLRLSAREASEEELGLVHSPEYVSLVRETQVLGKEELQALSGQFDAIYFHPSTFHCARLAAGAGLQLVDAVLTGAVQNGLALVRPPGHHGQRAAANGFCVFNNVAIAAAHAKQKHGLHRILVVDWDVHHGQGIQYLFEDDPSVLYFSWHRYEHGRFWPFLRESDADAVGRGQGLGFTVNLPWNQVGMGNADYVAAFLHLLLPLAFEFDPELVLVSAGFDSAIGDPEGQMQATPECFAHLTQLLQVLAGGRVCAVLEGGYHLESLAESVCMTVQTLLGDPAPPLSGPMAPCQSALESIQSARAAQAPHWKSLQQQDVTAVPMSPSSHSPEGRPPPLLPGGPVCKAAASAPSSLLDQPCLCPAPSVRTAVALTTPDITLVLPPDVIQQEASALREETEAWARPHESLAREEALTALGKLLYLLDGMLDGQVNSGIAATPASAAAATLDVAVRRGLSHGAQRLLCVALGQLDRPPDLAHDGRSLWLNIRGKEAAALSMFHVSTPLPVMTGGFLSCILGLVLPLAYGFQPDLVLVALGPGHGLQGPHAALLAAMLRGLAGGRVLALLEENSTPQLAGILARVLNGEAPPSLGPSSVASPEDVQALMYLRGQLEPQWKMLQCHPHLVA
T5 sequence (Q9UBN7 whole entry): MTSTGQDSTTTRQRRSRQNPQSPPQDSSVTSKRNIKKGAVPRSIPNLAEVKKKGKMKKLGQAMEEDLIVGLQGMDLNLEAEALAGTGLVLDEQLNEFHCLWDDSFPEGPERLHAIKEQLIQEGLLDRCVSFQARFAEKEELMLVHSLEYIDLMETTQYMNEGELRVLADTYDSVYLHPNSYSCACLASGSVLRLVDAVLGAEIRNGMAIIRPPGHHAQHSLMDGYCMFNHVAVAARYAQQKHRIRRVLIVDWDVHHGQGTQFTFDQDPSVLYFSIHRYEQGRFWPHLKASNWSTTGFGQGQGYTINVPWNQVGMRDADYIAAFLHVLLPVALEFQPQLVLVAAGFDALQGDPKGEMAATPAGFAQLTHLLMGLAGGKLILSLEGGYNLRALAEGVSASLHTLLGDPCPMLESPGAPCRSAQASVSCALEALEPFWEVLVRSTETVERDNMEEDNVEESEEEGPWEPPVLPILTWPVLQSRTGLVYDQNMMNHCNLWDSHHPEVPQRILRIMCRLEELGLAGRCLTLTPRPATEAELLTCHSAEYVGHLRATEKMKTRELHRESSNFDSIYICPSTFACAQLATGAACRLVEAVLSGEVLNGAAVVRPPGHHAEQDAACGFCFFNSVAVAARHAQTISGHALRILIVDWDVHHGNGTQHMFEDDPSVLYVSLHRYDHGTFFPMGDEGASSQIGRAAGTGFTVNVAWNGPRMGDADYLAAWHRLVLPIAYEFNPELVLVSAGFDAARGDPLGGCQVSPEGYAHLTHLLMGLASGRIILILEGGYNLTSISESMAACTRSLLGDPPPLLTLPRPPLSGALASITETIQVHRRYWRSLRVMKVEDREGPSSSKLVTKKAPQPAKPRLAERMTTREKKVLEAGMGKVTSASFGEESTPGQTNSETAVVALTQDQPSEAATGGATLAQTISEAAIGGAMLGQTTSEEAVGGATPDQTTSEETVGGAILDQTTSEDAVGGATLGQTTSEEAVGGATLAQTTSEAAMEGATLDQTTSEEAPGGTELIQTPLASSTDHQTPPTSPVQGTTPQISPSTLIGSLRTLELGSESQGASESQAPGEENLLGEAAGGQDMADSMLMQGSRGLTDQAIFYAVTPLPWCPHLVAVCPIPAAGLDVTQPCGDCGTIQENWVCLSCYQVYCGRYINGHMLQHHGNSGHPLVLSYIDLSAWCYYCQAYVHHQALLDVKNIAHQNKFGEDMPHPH
T1 sequence (Q9UQL6 whole entry): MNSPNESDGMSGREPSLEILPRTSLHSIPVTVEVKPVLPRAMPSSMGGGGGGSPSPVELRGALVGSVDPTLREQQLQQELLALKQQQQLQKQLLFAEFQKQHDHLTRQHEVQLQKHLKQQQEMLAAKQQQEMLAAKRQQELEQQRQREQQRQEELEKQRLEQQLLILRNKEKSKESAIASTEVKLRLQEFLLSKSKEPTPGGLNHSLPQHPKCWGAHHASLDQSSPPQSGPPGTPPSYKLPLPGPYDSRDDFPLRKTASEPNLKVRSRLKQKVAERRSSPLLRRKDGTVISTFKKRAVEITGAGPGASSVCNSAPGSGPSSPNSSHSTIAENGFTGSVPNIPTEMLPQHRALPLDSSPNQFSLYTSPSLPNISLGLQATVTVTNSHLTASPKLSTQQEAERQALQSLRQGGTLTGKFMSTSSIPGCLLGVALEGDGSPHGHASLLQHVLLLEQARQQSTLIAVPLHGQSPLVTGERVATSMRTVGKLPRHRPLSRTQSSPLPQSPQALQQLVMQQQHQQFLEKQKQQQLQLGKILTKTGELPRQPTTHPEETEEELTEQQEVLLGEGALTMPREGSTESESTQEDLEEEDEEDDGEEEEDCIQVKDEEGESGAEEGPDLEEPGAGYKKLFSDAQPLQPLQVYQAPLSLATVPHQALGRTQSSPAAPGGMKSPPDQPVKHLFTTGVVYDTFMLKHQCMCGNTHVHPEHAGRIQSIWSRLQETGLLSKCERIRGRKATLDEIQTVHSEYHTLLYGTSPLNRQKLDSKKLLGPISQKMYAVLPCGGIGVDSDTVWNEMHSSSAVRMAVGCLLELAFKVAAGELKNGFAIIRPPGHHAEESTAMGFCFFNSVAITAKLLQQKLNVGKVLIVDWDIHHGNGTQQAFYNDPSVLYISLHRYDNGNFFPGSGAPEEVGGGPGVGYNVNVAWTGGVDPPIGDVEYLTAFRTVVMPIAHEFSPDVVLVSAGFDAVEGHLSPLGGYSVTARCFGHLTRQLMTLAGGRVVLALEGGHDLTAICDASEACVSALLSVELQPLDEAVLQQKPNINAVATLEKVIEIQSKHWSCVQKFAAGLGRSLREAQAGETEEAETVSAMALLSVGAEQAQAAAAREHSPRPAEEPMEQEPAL

CCCCCOCCCCCNNC(=O)c1ccc(CNC(=O)c2ccccc2)cc1 [B6]
acetylation levels of histones H3 and H4 or tubulin [1]: no effect
IC50 (HDAC5): > 10 µM
hydrophilicity relative to parent compound A8 [2]: improved the hydrophilicity
IC50 (HDAC10): > 10 µM
FFA-suppressed protein and mRNA expression of CPT1A, PGC1α and PPARα [3]: partially restored
FFA-upregulated protein and mRNA expression of SREBP1c, FASN and SCD1 ([3]; 0.5 × 10^−6 M, 24 h): reversed
IC50 (HDAC2): > 10 µM
IC50 (HDAC11): 0.0511 µM
FFA-induced lipid accumulation (HepG2 cells): Comparable reduction in lipid accumulation
inhibitory activity against other HDAC subtypes, including SIRT2 (SIRT2; at a concentration of 10 × 10^−6 M): no significant inhibitory activity
IC50 (SIRT2; mean ± SEM): > 10 µM
LKB1 mRNA levels ([4]; FFA-induced HepG2 cells): increase in LKB1 mRNA levels
mRNA levels of CaMKKβ and TAK1 ([4]; FFA-induced HepG2 cells): did not exhibit significant changes
protein and mRNA expression of CPT1A, PGC1α and PPARα [4, 5]: upregulation of protein and mRNA expression
protein and mRNA expression of SREBP1c, FASN and SCD1 [4, 5]: reduction of protein and mRNA expression
phosphorylation of AMPKα at Thr172 [4, 6]: restores the phosphorylation level
protein expression of LKB1 and p-LKB1 [4, 6]: increase LKB1 expression
IC50 (HDAC6): > 10 µM
